These results are taken from patent US20130156768A1, “COMBINATION OF ANTI-CTLA4 ANTIBODY WITH BRAF INHIBITORS FOR THE SYNERGISTIC TREATMENT OF PROLIFERATIVE DISEASES” (Bristol-Myers Squibb Company, priority 2010, published 2013).

In data set [1] the test system is OVA-specific T cells. The experiment in a line: Model of antigen-induced T-cell proliferation (OVA adoptive transfer, OVA-specific tetramer staining). Conditions: CTLA-4 mAb 20 mg/kg days 1, 3; BRAF inhibitor 100 mg/kg days 1, 3, 5; erlotinib 100 mg/kg p.o. daily days 1-5; FIG. 3. The data set is classed as in vivo, C57BL6 mice. How it is done:
The effect of the combination of a BRAF inhibitor and CTLA-4 mAb was evaluated in a model of antigen-induced T-cell proliferation. In this model, T cells specific for the antigen ovalbumin (OVA) were adoptively transferred into naive C57BL6 mice on study day −1. On Study Day 0, animals were challenged with 250 ug of an OVA peptide (i.v.). Animals were reandomized and divided into groups of 5. Treatments were administered as follows: CTLA-4 mAb—20 mg/kg—study days 1 and 3; Methyl {5-[2-chloro-2-methylphenyl)-1-hydroxy-3-oxo-2,3-dihydro-1H-isoindol-1-yl]-1H-benzimidazol-2-yl}carbamate—100 mg/kg—study days 1, 3, and 5. In addition, another study group received erlotinib (TARCEVA®) daily at 100 mg/kg, p.o. from study days 1 through 5. Combination groups consisted of Compound Ia and CTLA-4 mAb or erlotinib+CTLA-4 mAb following the same schedules. Control animals received the OVA challenge and no further treatment. Expansion of OVA-specific T cells was measured prior to OVA challenge and on days 2, 5, 7 and 16 by OVA-specific tetramer staining.

A further data set deals with CT26 colon carcinoma. The experiment in a line: Antitumor activity in the murine CT26 colon carcinoma model. The data set is classed as in vivo. Conditions: for % TGI: CT26. The text has this: Thus, there was an interest in determining whether a potentiation of an antitumor immune response could be achieved by the combination of a CTLA-4 blocking mAb and a BRAF inhibitor in a murine CT26 colon carcinoma model.
Pharmacology studies are currently being conducted in support of the proposed clinical trial evaluating the antitumor activity of the BRAF inhibitor Methyl {5-[2-chloro-2-methylphenyl)-1-hydroxy-3-oxo-2,3-dihydro-1H-isoindol-1-yl]-1H-benzimidazol-2-yl}carbamate, and ipilimumab in subjects with advanced melanoma. Efficacy studies were conducted in the CT26 colon carcinoma, a tumor model sensitive to CTLA-4 blockade.
Two different combination schedules were evaluated, concurrent and sequential. In the concurrent setting, Methyl {5-[2-chloro-2-methylphenyl)-1-hydroxy-3-oxo-2,3-dihydro-1H-isoindol-1-yl]-1H-benzimidazol-2-yl}carbamate (100 mg/kg, p.o.) was administered every other day for […] while CTLA-4 mAb (20 mg/kg, i.p.) was dosed every 4 days for 3 doses starting on day 5. In the sequential setting, Methyl {5-[2-chloro-2-methylphenyl)-1-hydroxy-3-oxo-2,3-dihydro-1H-isoindol-1-yl]-1H-benzimidazol-2-yl}carbamate (100 mg/kg, p.o.) was dosed every other day for 4 doses from day 4-10 while CTLA-4 mAb (20 mg/kg, i.p.) was dosed every 4 days for 3 doses starting on day 11. Control groups consisted of each agent dosed in combination with vehicle control following the same schedule.

For data set [2], the system named is OVA-specific T cells. The experiment in a line: Second study in the OVA adoptive transfer model (OVA-specific T cell responses). The data set is classed as in vivo, murine. To be noted: agent added to CTLA-4 mAb, FIG. 5. The text has this:
In addition, combination of both agents synergistically expanded antigen-specific T cells when dosed concurrently. The effect of this promising combination was further investigated in a) a tumor model sensitive to CTLA-4 blockade (SA1N fibrosarcoma); b) in the antigen (OVA)-specific T cell model to assess the effect of Methyl {5-[2-chloro-2-methylphenyl)-1-hydroxy-3-oxo-2,3-dihydro-1H-isoindol-1-yl]-1H-benzimidazol-2-yl}carbamate at different dose levels and compared its activity to another BRAF inhibitor (EXT-000153, Genentech) and EVRI.
Previously, the unexpected expansion of antigen-specific T cells with the use of Methyl {5-[2-chloro-2-methylphenyl)-1-hydroxy-3-oxo-2,3-dihydro-1H-isoindol-1-yl]-1H-benzimidazol-2-yl}carbamate+CTLA-4 mAb in an OVA adoptive transfer model was observed (see Example 2). Thus, a second study was designed to confirm these initial observations to determine the dose effect of Methyl {5-[2-chloro-2-methylphenyl)-1-hydroxy-3-oxo-2,3-dihydro-1H-isoindol-1-yl]-1H-benzimidazol-2-yl}carbamate and to determine whether this phenomenon could also be elicited by other RAF inhibitors. In addition, EVRI, an EGFR/VEGFR inhibitor which inhibits the MAPK pathway was also included in this experiment.

For another data set, the system named is SA1N fibrosarcoma. The experiment in a line: Antitumor activity in the SA1N fibrosarcoma tumor model. The data set is classed as in vivo. How it is done: In addition, combination of both agents synergistically expanded antigen-specific T cells when dosed concurrently.
In the SA1N tumor model, the effect of the combination of both agents was investigated under either a concurrent dosing regimen or a sequential schedule.
Sa1N tumors were implanted s.c. and treatments were administered as follows: Methyl {5-[2-chloro-2-methylphenyl)-1-hydroxy-3-oxo-2,3-dihydro-1H-isoindol-1-yl]-1H-benzimidazol-2-yl}carbamate, […], 20 mg/kg, Q4D×3, starting on day 17.

Structures are written as SMILES.

On to `C#Cc1cccc(Nc2ncnc3cc(OCCOC)c(OCCOC)cc23)c1` [erlotinib, reference compound], for which, in the data set on OVA-specific T cells [1], the “OVA tetramer response (expansion of OVA-specific T cells)” value was “decreased the response”.
Take `COC(=O)Nc1nc2cc(C3(O)c4ccccc4C(=O)N3c3cc(Cl)ccc3C)ccc2[nH]1` (centres unmarked): the “% TGI” value in the data set with CT26 colon carcinoma (concurrent schedule, Day 26, BRAF inhibitor 100 mg/kg p.o. every other day x7 from day 4, CTLA-4 mAb 20 mg/kg i.p. every 4 days x3 from day 5) worked out at 70%; in the data set with CT26 colon carcinoma (sequential schedule, day 26, BRAF inhibitor 100 mg/kg p.o. every other day x4 day 4-10, CTLA-4 mAb 20 mg/kg i.p. every 4 days x3 from day 11), 77%. Moreover, the “complete regressions (CR)” value in the data set on CT26 colon carcinoma (CT-26 colon carcinoma model) was determined as 1 CR. For the same compound, the “effect on the OVA-specific T cell expansion elicited by CTLA-4 mAb” value in the data set on OVA-specific T cells [2] is on record as “enhanced CTLA-4 blockade OVA-specific T cell expansion in a dose-related manner”. In addition, the “toxicity of extended dosing” value with SA1N fibrosarcoma (SA1N tumor model, 7 doses used in the concurrent regimen) was “toxic”. Besides, the complete regressions entry in the data set with SA1N fibrosarcoma (SA1N, sequential treatment: BRAF inhibitor 100 mg/kg Q2Dx4 from day 10, CTLA-4 mAb 20 mg/kg Q4Dx3 from day 17) is on record as “no regression”. In the data set on OVA-specific T cells [1], the “OVA tetramer response (expansion of OVA-specific T cells)” value was “effect similar to CTLA-4 mAb”.
